Consider three molecules from patent US9556231B2, “Beta-hairpin peptidomimetics as CXC4 antagonists” (POLYPHOR AG, priority 2011, dated 2017).

A short description of data set [1]: Pharmacokinetic study (PK), i.v., CD-1 mice. Conditions: male, CD-1, in vivo, iv, mouse, i.v. 1 mg/kg; for level at 0.083 h / level at 0.25 h / level at 0.5 h / level at 1 h / level at 2 h / level at 3 h / level at 4 h: read-out: Calc. Conc. (plasma); for AUC(0-inf) / Cmax / clearance / half-life / Vd: one-compartmental model; for Vd: read-out: Vdis. The data set is classed as in vivo. As to the method:
For the compounds of Ex. 1, Ex. 2, Ex. 3, Ex. 4, Ex. 5 and Ex. 6 pharmacokinetic studies after intravenous (i.v.) administration were performed.
30 grams (±20%) male CD-1 mice obtained from Charles River Laboratories Deutschland GmbH were used. The vehicle, phosphate buffered saline, was added to give a final concentration of 0.5 mg/mL of the compound. The volume was 2 mL/kg and the compound was injected to give a final intravenous dose of 1 mg/kg. Approximately 300-400 μL of blood was removed under light isoflurane anesthesia by cardiac puncture at predetermined time intervals (5, 15, 30 min and 1, 2, 3, 4, hours) and added to heparinized tubes. Plasma was removed from pelleted cells upon centrifugation and frozen at −80° C. prior to HPLC-MS analysis.
Aliquots of 50 μL each of mouse plasma of untreated aminals (“blank” mouse plasma) were spiked with known amounts of the compounds Ex. 1, Ex. 2, Ex. 3, Ex. 4, Ex. 5 and Ex. 6 in order to obtain 10 plasma calibration samples for each compound in the range 1-4000 ng/mL. Aliquots of 50 μL each of mouse plasma from treated animals were used as plasma study samples.
All plasma samples were spiked with an appropriate internal standard and extracted with acetonitrile containing 2% formic acid. Supernatants were evaporated to dryness under nitrogen and the remaining solids reconstituted in water/acetonitrile 95/5 (v/v)+0.2% formic acid.
Extracts were then analyzed by reverse-phase chromatography (Acquity BEH C18, 100×2.1 mm, 1.7 μm column, Waters for Ex. 1 and Acquity HSS C18 SB, 100×2.1 mm, 1.8 μm column, Waters for Ex. 2, Ex. 3, Ex. 4, Ex. 5 and Ex. 6), using the following conditions: Ex. 1, mobile phases: (A) water/acetonitrile 95/5 (v/v)+0.1% formic acid, (B) acetonitrile/water 95/5 (v/v)+0.1% formic acid, gradient: 1% (B) 0-0.1 min, 15% (B) 0.1-2.5 min for Ex. 1 and 1% (B) 0-0.1 min, 40% (B) 0.1-2.5 min for Ex. 2, Ex. 3, Ex. 4, Ex. 5 and Ex. 6. The detection and quantification was performed by mass spectrometry, with electrospray interface in positive mode and selective fragmentation of analytes (4000 Q Trap mass spectrometer, AB Sciex).
PK parameters were calculated by WinNonLin™ software version 5.3 (Pharsight-A Certara™ Company, Mountain View, Calif. 94041 USA) using a one-compartmental model analysis. PK parameters were determined by least-square fitting of the model to the experimental data.

Data set [2] relates to HSC mobilization. The experiment in a line: HSC mobilization in mouse, dose-response study (CFU-C assay). The data set is classed as in vivo. Conditions: C57Bl/6 mice, 5 mg/kg i.p., at time of maximum mobilization (Ex. 1 4 h, Ex. 2 2 h). How it is done:
For the compounds of Ex. 1 and Ex. 2 a HSC mobilization study was performed consisting of a time-response study to assess the time of maximum mobilization after dosing and a subsequent dose-response study.
Male C57Bl/6 mice (Janvier, France; n=5 per dose group for Ex. 1, n=3 per dose group for Ex. 2) received bolus i.p. injections of Ex. 1 and Ex. 2, respectively, at doses of 0.5, 1.5, 5 and 15 mg/kg (compound dissolved in 10 μL of water per g mouse weight containing 0.9% NaCl). Blood was collected as described above at the time of maximum mobilization for Ex. 1 (4 h) and Ex. 2 (2 h), respectively.
CFU-C counts were determined by culturing aliquots of lysed peripheral blood in standard semi-solid progenitor cell culture medium. In brief, a defined amount of blood was washed with PBS buffer (Gibco®) containing 0.5% bovine serum albumin, followed by red blood cell lysis in hypotonic NH4Cl buffer (Sigma) and a second wash step. The cell pellet was resuspended in DMEM (Gibco®) containing 10% FCS, suspended in 2 mL of commercially available, cytokine-replete methylcellulose medium for murine cells (Cell Systems, USA), and plated in duplicate into 35 mm cell culture dishes. CFU-C were scored after 7-8 days incubation under standard conditions (20% O2, saturated humidity, 5% CO2, 37° C.). Peripheral blood cellularity was analyzed using an automated blood count machine (Drew Scientific). […]

Bridge positions count the residues as written; N and C are the ends. Square brackets hold non-standard residues; d marks the D form. Peptide text beside a SMILES is read from it. Lys(iPr) = CC(C)NCCCC[C@H](N)C(=O)O; Orn(iPr) = CC(C)NCCC[C@H](N)C(=O)O; Dab = NCC[C@H](N)C(=O)O

Turning to `CC(C)NCCCC[C@@H]1NC(=O)[C@H](CCC(N)=O)NC(=O)[C@H](Cc2ccc(O)cc2)NC(=O)[C@@H]2CSSC[C@H](NC(=O)[C@H](Cc3ccc(O)cc3)NC(=O)[C@H](Cc3c[nH]cn3)NC(=O)[C@H](Cc3ccc(O)cc3)NC(=O)[C@@H]3CCCN3C(=O)[C@H]3CCCN3C1=O)C(=O)N[C@@H](CO)C(=O)N[C@@H](C)C(=O)N[C@H](Cc1ccc(O)cc1)C(=O)N[C@@H](CCCNC(C)C)C(=O)N[C@@H](CCCNC(=N)N)C(=O)N[C@@H](Cc1ccc(O)cc1)C(=O)N2` [Ex. 5, cyclo(-Tyr^1-His^2-Tyr^3-Cys^4-Ser^5-Ala^6-^DTyr^7-Orn(iPr)^8-Arg^9-Tyr^10-Cys^11-Tyr^12-Gln^13-Lys(iPr)^14-^DPro^15-Pro^16-), disulfide bond between Cys^4 and Cys^11] (cyclo(YHYCSA[dY][Orn(iPr)]RYCYQ[Lys(iPr)][dP]P); disulfide 4-11), in data set [1], the level at 0.083 h is 1310 ng/mL, the level at 0.25 h was 984 ng/mL, the level at 0.5 h is 350 ng/mL and the level at 1 h is 503 ng/mL. In addition, in data set [1], the level at 2 h was 150 ng/mL, the level at 3 h was 49 ng/mL, the level at 4 h is 33 ng/mL and the AUC(0-inf) worked out at 1200 ng·h/mL. Besides, in data set [1], the concentration peaked (Cmax) at 1310 ng/mL, the clearance is 13.9 mL/min/kg, the half-life was 54 min and the Vd came to 1.04 L/kg.
`CC(C)NCCCC[C@@H]1NC(=O)[C@H](CCC(N)=O)NC(=O)[C@H](Cc2ccc(O)cc2)NC(=O)[C@@H]2CSSC[C@H](NC(=O)[C@H](C)NC(=O)[C@H](Cc3c[nH]cn3)NC(=O)[C@H](Cc3ccc(O)cc3)NC(=O)[C@@H]3CCCN3C(=O)[C@H]3CCCN3C1=O)C(=O)N[C@@H](CO)C(=O)N[C@@H](C)C(=O)N[C@H](Cc1ccc(O)cc1)C(=O)N[C@@H](CCN)C(=O)N[C@@H](CCCNC(=N)N)C(=O)N[C@@H](Cc1ccc(O)cc1)C(=O)N2` [Ex. 3, cyclo(-Tyr^1-His^2-Ala^3-Cys^4-Ser^5-Ala^6-^DTyr^7-Dab^8-Arg^9-Tyr^10-Cys^11-Tyr^12-Gln^13-Lys(iPr)^14-^DPro^15-Pro^16-), disulfide bond between Cys^4 and Cys^11] (cyclo(YHACSA[dY][Dab]RYCYQ[Lys(iPr)][dP]P); disulfide 4-11): in data set [1], the level at 0.083 h was 1170 ng/mL, the level at 0.25 h is 999 ng/mL, the level at 0.5 h is 442 ng/mL and the level at 1 h was 402 ng/mL. Further, in data set [1], the level at 2 h is 136 ng/mL, the level at 3 h was 26 ng/mL, the level at 4 h was 12 ng/mL and the AUC(0-inf) was determined as 898 ng·h/mL. Also, in data set [1], the Cmax is 1310 ng/mL, the clearance is 18.6 mL/min/kg, the half-life was 30 min and the Vd is 0.762 L/kg.
Regarding `COc1ccc(C[C@@H]2NC(=O)[C@H](Cc3c[nH]cn3)NC(=O)[C@H](Cc3ccc(O)cc3)NC(=O)[C@@H]3CCCN3C(=O)[C@H]3CCCN3C(=O)[C@H](CCCCNC(C)C)NC(=O)[C@H](CCC(N)=O)NC(=O)[C@H](Cc3ccc(O)cc3)NC(=O)[C@@H]3CSSC[C@H](NC2=O)C(=O)N[C@@H](CO)C(=O)N[C@@H](C)C(=O)N2CCC[C@@H]2C(=O)N[C@@H](CCCNC(C)C)C(=O)N[C@@H](CCCNC(=N)N)C(=O)N[C@@H](Cc2ccc(O)cc2)C(=O)N3)cc1` [Ex. 2, cyclo(-Tyr^1-His^2-Tyr(Me)^3-Cys^4-Ser^5-Ala^6-^DPro^7-Orn(iPr)^8-Arg^9-Tyr^10-Cys^11-Tyr^12-Gln^13-Lys(iPr)^14-^DPro^15-Pro^16-), disulfide bond between Cys^4 and Cys^11] (cyclo(YHY(Me)CSA[dP][Orn(iPr)]RYCYQ[Lys(iPr)][dP]P); disulfide 4-11), in data set [1], the level at 0.083 h is 1430 ng/mL, the level at 0.25 h was 1300 ng/mL, the level at 0.5 h is 836 ng/mL and the level at 1 h was 578 ng/mL. Also, in data set [1], the level at 2 h is 234 ng/mL, the level at 3 h is 68 ng/mL, the level at 4 h is 22 ng/mL and the total exposure AUC(0-inf) is 1520 ng·h/mL. Besides, in data set [1], the Cmax was determined as 1580 ng/mL, the clearance is 11 mL/min/kg, the half-life was 42 min and the Vd was 0.635 L/kg. In addition, in data set [2], the “CFU/mL ± SD” value is reported as 2894 CFU/mL.
